The target in the experiment is T1, human PAD4 (Homo sapiens, UniProt Q9UM07).
T1 construct: human PAD4 (NM_012387), A2P663, was PCR amplified; His-SUMO (N, cleaved yes); made in house; host or cells: E. coli BL21(DE3)
Briefly: In vitro PAD4 BAEE biochemical assay. To be noted: human PAD4, BAEE substrate; 5 nM PAD4, 2 mM calcium chloride, 3 mM BAEE; geometric mean of multiple experiments. The procedure, abridged:
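Tag-free recombinant hPAD4 (5 nM), 2 mM CaCl2, 3 mM BAEE, 50 mM MOPS pH 7.6, 2 mM DTT; 30 min compound preincubation, 2 h reaction, all 25 °C. EDTA quench; ammonia read via o-phthalaldehyde amine coupling, 1 h.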

pIC50: −log10 of the molar value.

The record followed here is US12240862B2, “Inhibitors of peptidylarginine deiminases” (Gilead Sciences, Inc., priority 2020, dated 2025).

As a reminder, the pIC50 is −log10 of the IC50, conventionally taken in molar units.

T1 sequence (Q9UM07 2-663): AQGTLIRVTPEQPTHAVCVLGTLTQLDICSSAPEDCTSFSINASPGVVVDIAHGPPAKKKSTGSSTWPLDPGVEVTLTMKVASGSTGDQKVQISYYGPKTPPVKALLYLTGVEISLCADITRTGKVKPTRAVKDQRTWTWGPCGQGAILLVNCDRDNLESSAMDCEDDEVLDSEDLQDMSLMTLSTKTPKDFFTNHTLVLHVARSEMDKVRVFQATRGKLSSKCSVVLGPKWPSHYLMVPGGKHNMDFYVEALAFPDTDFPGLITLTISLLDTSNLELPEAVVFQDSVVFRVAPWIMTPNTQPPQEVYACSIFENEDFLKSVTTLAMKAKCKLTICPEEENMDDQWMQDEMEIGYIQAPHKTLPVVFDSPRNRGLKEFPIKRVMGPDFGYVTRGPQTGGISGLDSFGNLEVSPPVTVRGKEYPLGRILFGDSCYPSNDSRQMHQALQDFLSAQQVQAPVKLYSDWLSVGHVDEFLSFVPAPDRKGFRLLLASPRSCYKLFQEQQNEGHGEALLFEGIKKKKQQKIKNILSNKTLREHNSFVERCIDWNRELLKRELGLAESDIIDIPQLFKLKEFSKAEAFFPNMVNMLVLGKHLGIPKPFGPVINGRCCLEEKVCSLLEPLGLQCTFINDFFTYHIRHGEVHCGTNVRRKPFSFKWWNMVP

Take `COc1cc(C(=O)N2[C@H]3CC[C@@H]2[C@H](N)C3)cc2nc(-c3cc4ccc([C@@H](C)NC(=O)N5CCOC[C@@H]5C(F)(F)F)nc4n3CC3CC3)c(C)n12` [Example 199, (3~{R})-~{N}-[(1~{R})-1-[2-[7-[(1~{R}, 2~{R},4~{S})-2-amino-7-azabicyclo[2.2.1]heptane-7-carbonyl]-5-methoxy-3-methylimidazo [1,2-a]pyridin-2-yl]-1-(cyclopropylmethyl)pyrrolo [2,3-b]pyridin-6-yl]ethyl]-3-(trifluoromethyl)morpholine-4-carboxamide]: the pIC50 was 7.45.

With `COc1cc(C(=O)N2[C@H]3CC[C@@H]2[C@H](N)C3)cc2nc(-c3cc4ccc([C@@H](C)NC(=O)N5CCOC[C@H]5C(F)(F)F)nc4n3CC3CC3)c(C)n12` [Example 200, (3~{S})-~{N}-[(1~{R})-1-[2-[7-[(1~{R},2~{R},4~{S})-2-amino-7-azabicyclo[2.2.1]heptane-7-carbonyl]-5-methoxy-3-methylimidazo [1,2-a]pyridin-2-yl]-1-(cyclopropylmethyl)pyrrolo [2,3-b]pyridin-6-yl]ethyl]-3-(trifluoromethyl)morpholine-4-carboxamide], the pIC50 was 7.36. As for `COc1cc(C(=O)N2[C@H]3CC[C@@H]2[C@H](N)C3)cc2nc(-c3cc4ccc([C@@H](C)NC(=O)N5CCO[C@@H](C)C5)nc4n3CC3CC3)c(C)n12` [Example 201, (2~{S})-~{N}-[(1~{R})-1-[2-[7-[(1~{R},2~{R},4~{S})-2-amino-7-azabicyclo[2.2.1]heptane-7-carbonyl]-5-methoxy-3-methylimidazo [1,2-a]pyridin-2-yl]-1-(cyclopropylmethyl)pyrrolo [2,3-b]pyridin-6-yl]ethyl]-2-methylmorpholine-4-carboxamide], the figure is 7.76. The result for `COc1cc(C(=O)N2[C@H]3CC[C@@H]2[C@H](N)C3)cc2nc(-c3cc4ccc([C@@H](C)NC(=O)N5CC(OC(F)(F)F)C5)nc4n3CC3CC3)c(C)n12` [Example 202, ~{N}-[(1~{R})-1-[2-[7-[(1~{R},2~{R},4~{S})-2-amino-7-azabicyclo[2.2.1]heptane-7-carbonyl]-5-methoxy-3-methylimidazo [1,2-a]pyridin-2-yl]-1-(cyclopropylmethyl)pyrrolo [2,3-b]pyridin-6-yl]ethyl]-3-(trifluoromethoxy)azetidine-1-carboxamide] reads 7.28; that for `COc1cc(C(=O)N2[C@H]3CC[C@@H]2[C@H](N)C3)cc2nc(-c3cc4ccc([C@@H](C)NC(=O)N5CCC(C(C)(C)O)C5)nc4n3CC3CC3)c(C)n12` (some centres unmarked) [Example 203, ~{N}-[(1~{R})-1-[2-[7-[(1~{R},2~{R},4~{S})-2-amino-7-azabicyclo[2.2.1]heptane-7-carbonyl]-5-methoxy-3-methylimidazo [1,2-a]pyridin-2-yl]-1-(cyclopropylmethyl)pyrrolo [2,3-b]pyridin-6-yl]ethyl]-3-(2-hydroxypropan-2-yl) pyrrolidine-1-carboxamide], 7.49. The result for `COc1cc(C(=O)N2[C@H]3CC[C@@H]2[C@H](N)C3)cc2nc(-c3cc4ccc([C@@H](C)NC(=O)NC5CC6(CC6)C5)nc4n3CC3CC3)c(C)n12` [Example 204, 1-[(1~{R})-1-[2-[7-[(1~{R},2~{R},4~{S})-2-amino-7-azabicyclo[2.2.1]heptane-7-carbonyl]-5-methoxy-3-methylimidazo [1,2-a]pyridin-2-yl]-1-(cyclopropylmethyl)pyrrolo [2,3-b]pyridin-6-yl]ethyl]-3-spiro[2.3]hexan-5-ylurea] reads 7.52; that for `COc1cc(C(=O)N2[C@H]3CC[C@@H]2[C@H](N)C3)cc2nc(-c3cc4ccc([C@@H](C)NC(=O)N5CC(OC(F)F)C5)nc4n3CC3CC3)c(C)n12` [Example 205, ~{N}-[(1~{R})-1-[2-[7-[(1~{R},2~{R},4~{S})-2-amino-7-azabicyclo[2.2.1]heptane-7-carbonyl]-5-methoxy-3-methylimidazo [1,2-a]pyridin-2-yl]-1-(cyclopropylmethyl)pyrrolo [2,3-b]pyridin-6-yl]ethyl]-3-(difluoromethoxy)azetidine-1-carboxamide], 7.46. Take `COc1cc(C(=O)N2[C@H]3CC[C@@H]2[C@H](N)C3)cc2nc(-c3cc4ccc([C@@H](C)NC(=O)N5CC(C(F)F)C5)nc4n3CC3CC3)c(C)n12` [Example 206, ~{N}-[(1~{R})-1-[2-[7-[(1~{R},2~{R},4~{S})-2-amino-7-azabicyclo[2.2.1]heptane-7-carbonyl]-5-methoxy-3-methylimidazo [1,2-a]pyridin-2-yl]-1-(cyclopropylmethyl)pyrrolo [2,3-b]pyridin-6-yl]ethyl]-3-(difluoromethyl)azetidine-1-carboxamide]: the negative logarithm of the IC50 (pIC50) was 7.42. On to `COc1cc(C(=O)N2[C@H]3CC[C@@H]2[C@H](N)C3)cc2nc(-c3cc4ccc([C@@H](C)NC(=O)N5CCC(F)(F)CC5)nc4n3CC3CC3)c(C)n12` [Example 207, ~{N}-[(1~{R})-1-[2-[7-[(1~{R},2~{R},4~{S})-2-amino-7-azabicyclo[2.2.1]heptane-7-carbonyl]-5-methoxy-3-methylimidazo [1,2-a]pyridin-2-yl]-1-(cyclopropylmethyl)pyrrolo [2,3-b]pyridin-6-yl]ethyl]-4,4-difluoropiperidine-1-carboxamide], for which the pIC50 is 7.34. The result for `COc1cc(C(=O)N2[C@H]3CC[C@@H]2[C@H](N)C3)cc2nc(-c3cc4ccc([C@@H](C)NC(=O)N5CC(F)(F)C(F)(F)C5)nc4n3CC3CC3)c(C)n12` [Example 208, ~{N}-[(1~{R})-1-[2-[7-[(1~{R},2~{R},4~{S})-2-amino-7-azabicyclo[2.2.1]heptane-7-carbonyl]-5-methoxy-3-methylimidazo [1,2-a]pyridin-2-yl]-1-(cyclopropylmethyl)pyrrolo [2,3-b]pyridin-6-yl]ethyl]-3,3,4,4-tetrafluoropyrrolidine-1-carboxamide] reads 6.95; that for `COc1cc(C(=O)N2[C@H]3CC[C@@H]2[C@H](N)C3)cc2nc(-c3cc4ccc([C@@H](C)NC(=O)N5CC6C(C5)C6(F)F)nc4n3CC3CC3)c(C)n12` (some centres unmarked) [Example 209, ~{N}-[(1~{R})-1-[2-[7-[(1~{R},2~{R},4~{S})-2-amino-7-azabicyclo[2.2.1]heptane-7-carbonyl]-5-methoxy-3-methylimidazo [1,2-a]pyridin-2-yl]-1-(cyclopropylmethyl)pyrrolo [2,3-b]pyridin-6-yl]ethyl]-6,6-difluoro-3-azabicyclo[3.1.0]hexane-3-carboxamide], 7.42; that for `COc1cc(C(=O)N2[C@H]3CC[C@@H]2[C@H](N)C3)cc2nc(-c3cc4ccc([C@@H](C)NC(=O)N5CCO[C@H](C)C5)nc4n3CC3CC3)c(C)n12` [Example 210, (2~{R})-~{N}-[(1~{R})-1-[2-[7-[(1~{R},2~{R}, 4~{S})-2-amino-7-azabicyclo[2.2.1]heptane-7-carbonyl]-5-methoxy-3-methylimidazo [1,2-a]pyridin-2-yl]-1-(cyclopropylmethyl)pyrrolo [2,3-b]pyridin-6-yl]ethyl]-2-methylmorpholine-4-carboxamide], 7.40.

As for `COc1cc(C(=O)N2[C@H]3CC[C@@H]2[C@H](N)C3)cc2nc(-c3cc4ccc([C@@H](C)NC(=O)N5CC6CC(C5)O6)nc4n3CC3CC3)c(C)n12` [Example 211, ~{N}-[(1~{R})-1-[2-[7-[(1~{R},2~{R},4~{S})-2-amino-7-azabicyclo[2.2.1]heptane-7-carbonyl]-5-methoxy-3-methylimidazo [1,2-a]pyridin-2-yl]-1-(cyclopropylmethyl)pyrrolo [2,3-b]pyridin-6-yl]ethyl]-6-oxa-3-azabicyclo [3.1.1]heptane-3-carboxamide], the pIC50 was 7.50. The result for `COc1cc(C(=O)N2[C@H]3CC[C@@H]2[C@H](N)C3)cc2nc(-c3cc4ccc([C@@H](C)NC(=O)NC5(C)CC(F)(F)C5)nc4n3CC3CC3)c(C)n12` [Example 212, 1-[(1~{R})-1-[2-[7-[(1~{R},2~{R},4~{S})-2-amino-7-azabicyclo[2.2.1]heptane-7-carbonyl]-5-methoxy-3-methylimidazo [1,2-a]pyridin-2-yl]-1-(cyclopropylmethyl)pyrrolo [2,3-b]pyridin-6-yl]ethyl]-3-(3,3-difluoro-1-methylcyclobutyl)urea] reads 7.19. In the case of `COc1cc(C(=O)N2[C@H]3CC[C@@H]2[C@H](N)C3)cc2nc(-c3cc4ccc([C@@H](C)NC(=O)NC(C)(C)C(F)(F)F)nc4n3CC3CC3)c(C)n12` [Example 213, 1-[(1~{R})-1-[2-[7-[(1~{R},2~{R},4~{S})-2-amino-7-azabicyclo[2.2.1]heptane-7-carbonyl]-5-methoxy-3-methylimidazo [1,2-a]pyridin-2-yl]-1-(cyclopropylmethyl)pyrrolo [2,3-b]pyridin-6-yl]ethyl]-3-(1,1,1-trifluoro-2-methylpropan-2-yl)urea], the pIC50 was 7.33. As to `COc1cc(C(=O)N2[C@H]3CC[C@@H]2[C@H](N)C3)cc2nc(-c3cc4ccc([C@@H](C)NC(=O)NC5CCOCC5)nc4n3CC3CC3)c(C)n12` [Example 214, 1-[(1~{R})-1-[2-[7-[(1~{R},2~{R},4~{S})-2-amino-7-azabicyclo[2.2.1]heptane-7-carbonyl]-5-methoxy-3-methylimidazo [1,2-a]pyridin-2-yl]-1-(cyclopropylmethyl)pyrrolo [2,3-b]pyridin-6-yl]ethyl]-3-(oxan-4-yl)urea], the negative-log IC50 (pIC50) is 7.35. As for `COc1cc(C(=O)N2[C@H]3CC[C@@H]2[C@H](N)C3)cc2nc(-c3cc4ccc([C@@H](C)NC(=O)N5CC[C@H](CCO)C5)nc4n3CC3CC3)c(C)n12` [Example 215, (3~{R})-~{N}-[(1~{R})-1-[2-[7-[(1~{R},2~{R}, 4~{S})-2-amino-7-azabicyclo[2.2.1]heptane-7-carbonyl]-5-methoxy-3-methylimidazo [1,2-a]pyridin-2-yl]-1-(cyclopropylmethyl)pyrrolo [2,3-b]pyridin-6-yl]ethyl]-3-(2-hydroxyethyl)pyrrolidine-1-carboxamide], the figure is 7.35.
